Experimental data published in ChEMBL document CHEMBL3627608, “Crystal structures of human RIP2 kinase catalytic domain complexed with ATP-competitive inhibitors: Foundations for understanding inhibitor selectivity” (Bioorg Med Chem, 2015).

What was measured:
[1] = biological target: T1, Serine/threonine-protein kinase DCLK1 (Homo sapiens) (UniProt O15075); assay: Inhibition of DCAMKL1 (unknown origin) at 10 uM after 120 mins P33 radiolabeled kinase activity assay
T1 sequence (whole entry): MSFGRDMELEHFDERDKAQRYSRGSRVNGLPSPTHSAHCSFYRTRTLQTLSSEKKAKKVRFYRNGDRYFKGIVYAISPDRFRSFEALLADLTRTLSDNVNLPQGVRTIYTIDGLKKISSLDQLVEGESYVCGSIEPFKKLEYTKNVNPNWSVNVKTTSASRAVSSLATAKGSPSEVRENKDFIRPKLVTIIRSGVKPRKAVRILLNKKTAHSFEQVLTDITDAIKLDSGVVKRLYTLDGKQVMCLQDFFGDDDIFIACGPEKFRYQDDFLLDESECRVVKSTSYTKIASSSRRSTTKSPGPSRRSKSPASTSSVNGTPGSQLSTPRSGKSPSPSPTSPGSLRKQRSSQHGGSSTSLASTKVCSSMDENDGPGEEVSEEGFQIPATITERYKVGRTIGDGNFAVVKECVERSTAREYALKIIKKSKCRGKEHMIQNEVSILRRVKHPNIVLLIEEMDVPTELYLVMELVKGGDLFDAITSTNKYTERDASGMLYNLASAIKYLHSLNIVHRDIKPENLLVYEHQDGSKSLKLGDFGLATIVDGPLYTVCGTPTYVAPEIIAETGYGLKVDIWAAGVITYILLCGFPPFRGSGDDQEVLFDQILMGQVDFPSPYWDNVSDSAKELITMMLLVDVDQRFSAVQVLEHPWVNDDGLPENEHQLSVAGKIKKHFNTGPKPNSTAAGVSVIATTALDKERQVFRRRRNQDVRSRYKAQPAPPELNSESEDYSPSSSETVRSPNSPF

[2] = biological target: Serine/threonine-protein kinase pim-3 (Homo sapiens) (UniProt Q86V86); assay: Inhibition of PIM3 (unknown origin) at 10 uM after 120 mins P33 radiolabeled kinase activity assay
[3] = biological target: Dual specificity protein kinase CLK4 (Homo sapiens) (UniProt Q9HAZ1); assay: Inhibition of CLK4 (unknown origin) at 10 uM after 120 mins P33 radiolabeled kinase activity assay
Sequence of Dual specificity protein kinase CLK4 (Homo sapiens) (Q9HAZ1 whole entry, looked up): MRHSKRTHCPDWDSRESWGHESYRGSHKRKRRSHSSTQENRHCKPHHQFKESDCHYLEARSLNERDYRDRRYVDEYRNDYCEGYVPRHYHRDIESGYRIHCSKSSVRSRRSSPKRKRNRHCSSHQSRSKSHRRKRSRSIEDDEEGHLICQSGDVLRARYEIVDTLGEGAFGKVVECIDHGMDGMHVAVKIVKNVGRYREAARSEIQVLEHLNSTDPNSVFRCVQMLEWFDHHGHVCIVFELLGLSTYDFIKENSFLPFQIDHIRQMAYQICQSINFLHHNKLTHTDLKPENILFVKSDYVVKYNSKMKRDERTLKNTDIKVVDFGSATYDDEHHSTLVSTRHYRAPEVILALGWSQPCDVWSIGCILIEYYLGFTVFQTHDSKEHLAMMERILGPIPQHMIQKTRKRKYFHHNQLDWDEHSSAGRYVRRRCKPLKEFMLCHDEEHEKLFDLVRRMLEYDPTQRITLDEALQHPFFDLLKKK

[4] = biological target: Tyrosine-protein kinase Fyn (Homo sapiens) (UniProt P06241); assay: Inhibition of FYN (unknown origin) at 10 uM after 120 mins P33 radiolabeled kinase activity assay
Sequence of Tyrosine-protein kinase Fyn (Homo sapiens) (P06241 2-537 limits assumed): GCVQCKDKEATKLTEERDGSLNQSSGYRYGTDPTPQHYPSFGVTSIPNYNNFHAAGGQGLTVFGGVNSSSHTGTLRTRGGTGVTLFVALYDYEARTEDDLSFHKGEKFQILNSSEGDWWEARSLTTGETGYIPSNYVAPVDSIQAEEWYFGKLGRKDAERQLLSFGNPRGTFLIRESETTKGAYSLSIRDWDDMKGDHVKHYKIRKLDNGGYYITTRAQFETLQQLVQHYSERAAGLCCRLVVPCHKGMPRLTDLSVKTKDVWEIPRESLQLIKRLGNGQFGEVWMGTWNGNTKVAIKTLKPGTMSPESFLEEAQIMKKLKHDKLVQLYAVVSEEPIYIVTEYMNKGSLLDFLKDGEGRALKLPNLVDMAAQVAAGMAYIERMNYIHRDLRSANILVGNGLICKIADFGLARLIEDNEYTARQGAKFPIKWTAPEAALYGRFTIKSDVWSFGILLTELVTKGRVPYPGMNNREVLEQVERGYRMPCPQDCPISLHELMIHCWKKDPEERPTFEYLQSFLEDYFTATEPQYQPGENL

[5] = biological target: Insulin receptor-related protein (Homo sapiens) (UniProt P14616); assay: Inhibition of IRR (unknown origin) at 10 uM after 120 mins P33 radiolabeled kinase activity assay
Sequence of Insulin receptor-related protein (Homo sapiens) (P14616 27-742 limits assumed): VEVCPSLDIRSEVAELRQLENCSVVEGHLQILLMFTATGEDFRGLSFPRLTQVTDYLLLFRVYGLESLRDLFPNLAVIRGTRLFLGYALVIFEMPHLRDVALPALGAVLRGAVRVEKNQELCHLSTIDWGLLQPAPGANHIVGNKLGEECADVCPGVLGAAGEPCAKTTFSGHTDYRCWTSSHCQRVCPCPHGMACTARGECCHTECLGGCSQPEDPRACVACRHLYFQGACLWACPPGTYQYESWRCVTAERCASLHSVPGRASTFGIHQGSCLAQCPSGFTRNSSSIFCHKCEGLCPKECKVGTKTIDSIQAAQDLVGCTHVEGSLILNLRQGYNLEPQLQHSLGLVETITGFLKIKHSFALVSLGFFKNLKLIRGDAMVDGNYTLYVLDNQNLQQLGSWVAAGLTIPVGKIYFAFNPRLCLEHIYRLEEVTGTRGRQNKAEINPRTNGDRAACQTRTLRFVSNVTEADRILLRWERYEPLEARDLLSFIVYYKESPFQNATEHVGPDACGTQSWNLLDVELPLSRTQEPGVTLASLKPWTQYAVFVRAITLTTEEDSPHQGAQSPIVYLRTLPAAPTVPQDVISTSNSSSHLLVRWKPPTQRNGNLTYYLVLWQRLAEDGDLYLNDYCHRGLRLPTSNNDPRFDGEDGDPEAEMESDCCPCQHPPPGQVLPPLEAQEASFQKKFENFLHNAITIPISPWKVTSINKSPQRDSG
Sequence of Insulin receptor-related protein (Homo sapiens) (P14616 747-1297 limits assumed): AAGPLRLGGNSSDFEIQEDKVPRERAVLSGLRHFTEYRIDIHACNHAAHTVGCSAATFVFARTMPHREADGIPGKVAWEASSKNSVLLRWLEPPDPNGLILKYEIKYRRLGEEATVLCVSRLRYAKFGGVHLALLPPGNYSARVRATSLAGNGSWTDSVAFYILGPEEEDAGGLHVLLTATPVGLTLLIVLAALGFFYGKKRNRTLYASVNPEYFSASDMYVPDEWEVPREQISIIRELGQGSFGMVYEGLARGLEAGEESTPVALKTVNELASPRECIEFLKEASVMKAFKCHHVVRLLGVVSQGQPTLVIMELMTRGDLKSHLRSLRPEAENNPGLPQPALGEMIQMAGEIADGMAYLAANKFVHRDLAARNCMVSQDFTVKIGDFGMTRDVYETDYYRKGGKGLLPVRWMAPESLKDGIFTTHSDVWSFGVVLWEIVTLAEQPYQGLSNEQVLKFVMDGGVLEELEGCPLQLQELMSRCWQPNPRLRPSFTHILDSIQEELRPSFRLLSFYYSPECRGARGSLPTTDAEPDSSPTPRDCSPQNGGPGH

[6] = biological target: T2, Non-receptor tyrosine-protein kinase TNK1 (Homo sapiens) (UniProt Q13470); assay: Inhibition of TNK1 (unknown origin) at 10 uM after 120 mins P33 radiolabeled kinase activity assay
T2 sequence (whole entry): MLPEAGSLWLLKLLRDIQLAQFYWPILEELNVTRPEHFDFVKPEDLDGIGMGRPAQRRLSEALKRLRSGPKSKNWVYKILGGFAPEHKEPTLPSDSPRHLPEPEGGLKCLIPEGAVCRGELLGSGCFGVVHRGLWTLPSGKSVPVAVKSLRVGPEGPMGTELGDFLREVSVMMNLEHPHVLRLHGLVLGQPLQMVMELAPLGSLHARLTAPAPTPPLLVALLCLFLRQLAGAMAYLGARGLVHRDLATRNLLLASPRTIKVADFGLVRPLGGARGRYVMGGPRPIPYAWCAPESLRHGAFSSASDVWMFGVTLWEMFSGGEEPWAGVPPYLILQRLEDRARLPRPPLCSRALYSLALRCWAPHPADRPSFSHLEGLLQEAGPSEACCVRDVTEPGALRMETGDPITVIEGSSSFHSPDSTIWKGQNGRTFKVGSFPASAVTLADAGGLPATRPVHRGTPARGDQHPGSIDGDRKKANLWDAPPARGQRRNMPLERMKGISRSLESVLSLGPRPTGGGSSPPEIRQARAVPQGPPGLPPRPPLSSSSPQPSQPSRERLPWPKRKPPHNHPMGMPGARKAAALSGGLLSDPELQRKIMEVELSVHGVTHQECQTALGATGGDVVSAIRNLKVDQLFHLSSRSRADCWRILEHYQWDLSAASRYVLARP

[7] = biological target: T3, Serine/threonine-protein kinase BRSK1 (Homo sapiens) (UniProt Q8TDC3); assay: Inhibition of BRSK1 (unknown origin) at 10 uM after 120 mins P33 radiolabeled kinase activity assay
T3 sequence (whole entry): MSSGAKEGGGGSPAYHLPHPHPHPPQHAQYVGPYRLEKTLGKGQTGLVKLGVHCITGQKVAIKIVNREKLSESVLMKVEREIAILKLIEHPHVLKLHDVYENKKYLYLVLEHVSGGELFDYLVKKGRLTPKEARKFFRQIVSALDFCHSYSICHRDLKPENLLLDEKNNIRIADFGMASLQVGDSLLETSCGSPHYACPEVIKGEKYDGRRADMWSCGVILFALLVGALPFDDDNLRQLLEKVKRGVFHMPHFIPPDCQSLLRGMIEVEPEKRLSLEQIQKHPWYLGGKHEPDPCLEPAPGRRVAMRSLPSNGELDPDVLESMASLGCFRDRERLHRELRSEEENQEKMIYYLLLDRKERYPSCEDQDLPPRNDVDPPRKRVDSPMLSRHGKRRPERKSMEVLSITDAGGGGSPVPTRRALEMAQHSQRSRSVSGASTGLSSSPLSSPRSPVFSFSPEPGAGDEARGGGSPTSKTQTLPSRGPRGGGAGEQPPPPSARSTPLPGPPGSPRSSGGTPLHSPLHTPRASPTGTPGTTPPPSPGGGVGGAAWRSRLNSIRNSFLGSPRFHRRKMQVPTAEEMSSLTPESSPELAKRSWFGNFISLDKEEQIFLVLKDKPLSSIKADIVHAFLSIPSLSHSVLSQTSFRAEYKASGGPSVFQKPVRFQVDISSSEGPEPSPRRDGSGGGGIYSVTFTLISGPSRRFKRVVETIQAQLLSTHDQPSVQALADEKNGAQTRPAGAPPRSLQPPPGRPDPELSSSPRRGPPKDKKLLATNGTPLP

Row | Compound | inhibition [1] | inhibition [2] | inhibition [3] | inhibition [4] | inhibition [5] | inhibition [6] | inhibition [7]
1 | CS(=O)(=O)c1cccc(Nc2nccc(-c3sc(N4CCOCC4)nc3-c3cccc(NS(=O)(=O)c4c(F)cccc4F)c3)n2)c1 | 8.06% | 17.3% | 36.7% | 99.8% | 10.1% | 95.2% | 49.8%
2 | COCCNC(=O)c1ccc2c(c1)nc(-c1cnc(-c3ccc(Cl)cc3)[nH]1)n2CCOC | 4.11% | 3.38% | 41.3% | 49.1% | 1.49% | 22.5% | 18.7%
3 | CC(C)(C)c1cc(NC(=O)Nc2ccc(Oc3ccncc3)cc2)no1 | 2.97% | 69.2% | 36.5% | 85.8% | 33% | 89% | 16.8%
